The values below come from PubChem BioAssay AID2060890 (Molecular Pharmacology Branch, DTP, NCI, 2025).

For the experiment, the system named is LG0703-F948-PDC complex spheroid viability. The experiment is described as follows: Anticancer human tumor LG0703-F948-PDC patient-derived lung adenocarcinoma cell line growth inhibition [RAS]. Conditions: for viability, T/C: stronger effect = lower value. An outline of the steps:
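Agents were tested in combination matrices in half-log decrements from a top concentration at or near clinical Cmax (10 microM if undetermined). Targets were multi-cell spheroids of tumour lines plus HUVEC and MSC stromal cells.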

[1] abbreviates: curve of first compound, second compound 0.000949 µM.
Setting [2] is: curve of first compound, second compound 0.003 µM.
The mark [3] stands for this setting: curve of first compound, second compound 0.00949 µM.
Setting [4] is: curve of first compound, second compound 0.03 µM.
Setting [5] is: curve of first compound, second compound 0.0949 µM.
The mark [6] stands for this setting: curve of first compound, second compound 0.3 µM.

pIC50: −log10 of the molar value.
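Note: spheroids exposed to agents for 7 days.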
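Throughout, for viability, T/C: 100% = DMSO vehicle wells.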

On to `O=C(c1ccc(F)c(F)c1Nc1ccc(I)cc1F)N1CC(O)([C@@H]2CCCCN2)C1` + CCn1c(-c2cccnc2C(C)OC)c2c3cc(ccc31)N1CCOC(CC(NC(=O)C(C(C)C)N(C)C(=O)C3(F)CCN(C(=O)C#CC(C)(C)N(C)C)CC3)C(=O)N3CCCC(N3)C(=O)OCC(C)(C)C2)C1, for which the pIC50 by setting is: under setting [1], 7.10; under setting [2], 7.19; under setting [3], 7.06; under setting [4], 7.19; under setting [5], 7.64; under setting [6], over 8.50. Moreover, the viability, T/C is, setting by setting: (second compound 0.000949 µM, first compound 0.00316 µM) 93.7%; (second compound 0.000949 µM, first compound 0.01 µM) 93.3%; (second compound 0.000949 µM, first compound 0.0316 µM) 64.2%; (second compound 0.000949 µM, first compound 0.1 µM) 48.2%; (second compound 0.000949 µM, first compound 0.316 µM) 33.4%; (second compound 0.000949 µM, first compound 1 µM) 28.2%. For the same compound, the viability, T/C is 97.1% (second compound 0.003 µM, first compound 0.00316 µM); 79.8% (second compound 0.003 µM, first compound 0.01 µM); 60.5% (second compound 0.003 µM, first compound 0.0316 µM); 40.7% (second compound 0.003 µM, first compound 0.1 µM); 38.4% (second compound 0.003 µM, first compound 0.316 µM); 27.2% (second compound 0.003 µM, first compound 1 µM). Also, the viability, T/C (second compound 0.00949 µM, first compound 0.00316 µM) is 87.3%; the viability, T/C (second compound 0.00949 µM, first compound 0.01 µM) is 88.3%; the viability, T/C (second compound 0.00949 µM, first compound 0.0316 µM) is 70%; the viability, T/C (second compound 0.00949 µM, first compound 0.1 µM) is 46.9%; the viability, T/C (second compound 0.00949 µM, first compound 0.316 µM) was 30.6%; the viability, T/C (second compound 0.00949 µM, first compound 1 µM) was 21.6%. Also, the viability, T/C (second compound 0.03 µM, first compound 0.00316 µM) was 96.2%; the viability, T/C (second compound 0.03 µM, first compound 0.01 µM) was 76.1%; the viability, T/C (second compound 0.03 µM, first compound 0.0316 µM) is 60.9%; the viability, T/C (second compound 0.03 µM, first compound 0.1 µM) was 42.7%; the viability, T/C (second compound 0.03 µM, first compound 0.316 µM) was 33.1%; the viability, T/C (second compound 0.03 µM, first compound 1 µM) is 21.9%. The viability, T/C is 69.4% (second compound 0.0949 µM, first compound 0.00316 µM); 61% (second compound 0.0949 µM, first compound 0.01 µM); 44.2% (second compound 0.0949 µM, first compound 0.0316 µM); 33.5% (second compound 0.0949 µM, first compound 0.1 µM); 20.9% (second compound 0.0949 µM, first compound 0.316 µM); 12.4% (second compound 0.0949 µM, first compound 1 µM). Also, the viability, T/C was 41.6% (second compound 0.3 µM, first compound 0.00316 µM); 35.4% (second compound 0.3 µM, first compound 0.01 µM); 24% (second compound 0.3 µM, first compound 0.0316 µM); 13.1% (second compound 0.3 µM, first compound 0.1 µM); 13.1% (second compound 0.3 µM, first compound 0.316 µM); 5.27% (second compound 0.3 µM, first compound 1 µM).

As for `C=CC(=O)N1CCN(c2nc(OCC3CCCN3C)nc3c(F)c(-c4nc(N)cc(C)c4C(F)(F)F)c(Cl)cc23)C(C)C1` (stereo unspecified), the viability, T/C is 102% [middle of 11 runs] (compound 0.01 µM), 106% [middle of 11 runs] (compound 0.1 µM) and 112% [middle of 11 runs] (compound 1 µM). Moreover, the pIC50 was under 6.00 (compound alone, run of 09/09/2024) and under 6.00 (curve of compound).

Regarding `CC1(C)CCC(Nc2ncc(C(F)(F)F)c(-c3c[nH]c4c(P(C)(C)=O)c(C#N)ccc34)n2)CN1` (stereo unspecified), the viability, T/C by setting is: (compound 0.000949 µM) 91% [middle of 4 runs]; (compound 0.003 µM) 76.9% [middle of 4 runs]; (compound 0.00949 µM) 68.7% [middle of 4 runs]; (compound 0.03 µM) 67.9% [middle of 4 runs]; (compound 0.0949 µM) 65.8% [middle of 4 runs]; (compound 0.3 µM) 67.9% [middle of 4 runs]. The pIC50 (curve of compound) was under 6.52.

As for `CC1(C)CCC(Nc2ncc(C(F)(F)F)c(-c3c[nH]c4c(P(C)(C)=O)c(C#N)ccc34)n2)CN1` (stereo unspecified) + CCn1c(-c2cc(N3CCN(C)CC3)cnc2C(C)OC)c2c3cc(ccc31)-c1csc(n1)CC(NC(=O)C1CC1C)C(=O)N1CCCC(N1)C(=O)OCC(C)(C)C2, the pIC50 was under 6.52 under setting [1]; over 9.02 under setting [2]; over 9.02 under setting [3]; over 9.02 under setting [4]; over 9.02 under setting [5]; over 9.02 under setting [6]. Further, the viability, T/C by setting is: (second compound 0.000949 µM, first compound 0.000949 µM) 70.9%; (second compound 0.000949 µM, first compound 0.003 µM) 58.2%; (second compound 0.000949 µM, first compound 0.00949 µM) 54.9%; (second compound 0.000949 µM, first compound 0.03 µM) 64.2%; (second compound 0.000949 µM, first compound 0.0949 µM) 69.8%; (second compound 0.000949 µM, first compound 0.3 µM) 66%. In addition, the viability, T/C is 50.5% (second compound 0.003 µM, first compound 0.000949 µM); 38.7% (second compound 0.003 µM, first compound 0.003 µM); 43.2% (second compound 0.003 µM, first compound 0.00949 µM); 39% (second compound 0.003 µM, first compound 0.03 µM); 40.1% (second compound 0.003 µM, first compound 0.0949 µM); 44.5% (second compound 0.003 µM, first compound 0.3 µM). Further, the viability, T/C was 27.3% (second compound 0.00949 µM, first compound 0.000949 µM); 26.4% (second compound 0.00949 µM, first compound 0.003 µM); 25.1% (second compound 0.00949 µM, first compound 0.00949 µM); 31.8% (second compound 0.00949 µM, first compound 0.03 µM); 26.6% (second compound 0.00949 µM, first compound 0.0949 µM); 33.8% (second compound 0.00949 µM, first compound 0.3 µM). Moreover, the viability, T/C reads like this: (second compound 0.03 µM, first compound 0.000949 µM) 15.2%; (second compound 0.03 µM, first compound 0.003 µM) 14.4%; (second compound 0.03 µM, first compound 0.00949 µM) 17.2%; (second compound 0.03 µM, first compound 0.03 µM) 19.4%; (second compound 0.03 µM, first compound 0.0949 µM) 18.3%; (second compound 0.03 µM, first compound 0.3 µM) 20.3%. In addition, the viability, T/C reads like this: (second compound 0.0949 µM, first compound 0.000949 µM) 12.3%; (second compound 0.0949 µM, first compound 0.003 µM) 11.9%; (second compound 0.0949 µM, first compound 0.00949 µM) 12.3%; (second compound 0.0949 µM, first compound 0.03 µM) 12.9%; (second compound 0.0949 µM, first compound 0.0949 µM) 14.1%; (second compound 0.0949 µM, first compound 0.3 µM) 9.28%. The viability, T/C is, setting by setting: (second compound 0.3 µM, first compound 0.000949 µM) 9.53%; (second compound 0.3 µM, first compound 0.003 µM) 9.6%; (second compound 0.3 µM, first compound 0.00949 µM) 8.69%; (second compound 0.3 µM, first compound 0.03 µM) 12.3%; (second compound 0.3 µM, first compound 0.0949 µM) 12.7%; (second compound 0.3 µM, first compound 0.3 µM) 10.1%.

A word on the pIC50: it is the IC50 on a negative log10 scale, so that one unit is a factor of ten. Broadly, the viability, T/C is the ratio of treated to control.
